Experimental data from patent publication US7795305B2, “CDDO-compounds and combination therapies thereof” (Board of Regents, The University of Texas System, priority 2000, dated 2010).
Like-named read-outs stand apart in the source and are kept apart here.

Legend:
Daudi cells = experiment: cells
Procedure: Suspension culture of leukemic cells. Leukemic cell lines were cultured at a density of 3.0×10^5 cells/mL, and AML mononuclear cells at 5×10^5 cells/mL in the presence or absence of indicated concentrations of CDDO-Me. Appropriate amounts of DMSO (final concentration<0.05%) was included as a control. For cytotoxicity studies, 1 μM ara-C was added to the cultures.
CDDO-Me. […] Mechanism of growth inhibition was analyzed on cell cycle and apoptosis in HL-60 cells.

primary AML cells = experiment: Monocytic differentiation (CD14) in primary AML; type: cell-based, human
Procedure: Immunophenotyping. The PE-conjugated anti-CD11b, FITC-conjugated anti-CD14 monoclonal antibody (mAb) (Becton Dickinson) and PE-conjugated anti-CD95 mAb (PharMingen) were used at a 1/10 dilution.
(§1) CDDO-Me. […] Effects of CDDO-Me were also tested on clonogenic AML cells.

AML progenitors = experiment: AML blast colony assay; type: cell-based, human
Procedure: AML blast colony assay. A previously described method was used to measure AML blast colony formation. Briefly, 1×10^5 T-cell-depleted, nonadherent, low-density bone marrow cells were plated in 0.8% methylcellulose in Iscove's modified Dulbecco's medium (IMDM; Gibco Laboratories, Grand Island, N.Y.) supplemented with 10% fetal bovine serum and 15 ng/mL recombinant human granulocyte-macrophage colony-stimulating factor (hGM-CSF). CDDO or CDDO-Me was added at the initiation of cultures at concentrations ranging from 0.05 to 0.5 μg/mL. AML blast colonies were evaluated under a microscope on day 7 of culture in duplicate dishes.
The effect of CDDO on clonogenic AML cells were tested. […] (FIG. 7).
as §1

[1] = system: human leukemic KBM-3 cells; experiment: Engraftment of leukemic cells in NOD/Scid mice, FISH; type: in vivo; settings: 6 mg/kg/day IP for 10 days
Procedure: The effect of CDDO on engraftment of leukemic cells was further tested in NOD/Scid mice transplanted with 1×10^6 human leukemic KBM-3 cells. Eleven mice were treated with CDDO at 6 mg/kg/day IP (divided in 3 injections per day) for 10 days; a control set of 9 mice received vehicle alone. The engraftment of human leukemic cells was determined by FISH based on the known karyotype of the cells (trisomy 8) at 5 weeks following transplantation. While 10.6±2.7% cells were leukemic in the bone marrow of the control group (range 0.12-21%), only 3±2.4% leukemic cells were found in CDDO-treated mice (range 0.04-12.5%, p=0.016). 5/11 CDDO-treated animals but only ⅛ controls had <1% leukemic cells by FISH analysis.

[2] = Excerpt: Subacute toxicity studies. An important aspect of this invention of CDDO-compounds and its combination therapies with other chemotherapeutics is to assess the toxicity and relative therapeutic efficacy of CDDO-compounds. The preliminary toxicity (i.e. determination of LD50 and MTD [maximum tolerated dose]) of CDDO-compounds was studied in healthy BALB/C mice (male and female, 25-30 g) after single i. v. or oral injections. Seven different dose levels (10 mice/dose level) were used after the appropriate pilot dosing experiments to define a MTD dose for both the oral and iv routes of administration. Animals were observed and weighed daily. The experiment was terminated on day 14. Surviving animals were sacrificed by exposure to carbon dioxide. The unit-dose effect line will be constructed and used to calculate lethal doses LD10 and LD50).
Determination of MTD. 60 female Balb/C mice divided into 12 groups of 5 mice. With 5 mice per dose level, six dose levels for IV or oral drug administration were used.
(§2) Intravenous CDDO administration. Groups of mice received CDDO intravenously as a single bolus injection into the tail vein on Day 1. […] The typical organs from each mouse that are examined include brain, heart, lungs, spleen, pancreas, kidneys, liver, gastrointestinal tract, lymph nodes, muscle, bone marrow, and skin.
as §2, with “CDDO-Me” for “CDDO”

[3] = system: bone marrow endothelial cells; experiment: Matrigel tube-like endothelial structure formation; type: cell-based
Procedure: CDDO. PPARγ nuclear receptor is expressed in bone marrow endothelial cells, and PPARγ ligands inhibit inhibited endothelial cell proliferation. […] The present inventors therefore tested the effects of CDDO in endothelial cell assays. The formation of tube-like endothelial structures was performed using Matrigel®, a basement membrane matrix extracted from the Engelbreth-Holm Swarm mouse sarcoma cell line. Bone marrow endothelial cells with recombinant angiogenic cytokines were incubated in the presence or absence of CDDO, and formation of tube-like endothelial structures was assessed by direct observation using a inverted contrast-phase microscope. […] Vascular endothelial cells (HUVEC) were grown in EBM-2 or EGM-2 media (Clonetics) containing VEGF, EGF, bFGF and IGF-1. The proliferation of endothelial cells was assessed by inverted contrast-phase microscope after 24 hrs of CDDO exposure in the indicated concentrations. CDDO-Me. The formation of tube-like endothelial structures that are associated with angiogenesis was analyzed using a Matrigel system (Kubota et al., 1988). Capillary-like structure formation of bone marrow endothelium was inhibited by CDDO-Me. […] Thus, CDDO-Me also has anti-angiogenic effects.

HL-60-Dox cells = experiment: Killing of MDR-1 expressing cells; type: cell-based, human
[4] = system: U937 cells transduced with Bcl-2; experiment: Cytotoxicity in Bcl-2 overexpressing cells; type: cell-based, human
Excerpt: The inventors also tested if overexpression of the anti-apoptotic protein Bcl-2 protected leukemic cells from CDDO-induced cytotoxicity. For these experiments U937 cells transduced with Bcl-2 were used with empty-vector containing counterparts as controls.
To study if the overexpression of Bcl-2 can protect leukemic cells from CDDO-Me-induced cytotoxicity the inventors used U937 cells transduced with Bcl-2 (Vrana et al., 1999) and their empty-vector containing counterparts. […] However, […] overexpressing Bcl-2 exerted almost complete protection from CDDO-Me killing as determined by annexin V-positivity, Phi-Phi-Lux and CMXRos staining. […] In contrast, in p53-negative HL-60 and HL-60-Dox cells Fas was only not induced but IETD-FMK could also not prevent CDDO-Me-induced cell death, indicating involvement of different mechanisms of apoptotic cell death in these cells (Owen-Schaub et al., 1994). […] Thus, induction of the FasL/Fas/caspase-8 pathway is not essential in the execution of CDDO-Me-induced cell death. Post-translational modifications of Bcl-2 are involved in the regulation of apoptosis by CDDO-Me. Thus, Bcl-2 phosphorylation is inhibited by CDDO-Me.

SMILES | Daudi cells alive (Daudi cells; 1 μM) [%] | viability at 2 µM (Daudi cells; Homo sapiens, Daudi, read-out: viable cells) [%] | AML samples with induced monocytic differentiation (CD14) (primary AML cells) | colony formation of AML progenitors reduced (AML progenitors; 1 μM, n=6) [%] | animals with <1% leukemic cells by FISH [1] | leukemic cells in the bone marrow, range [1] | leukemic cells in the bone marrow (FISH) ([1]; 5 weeks after transplantation (control 10.6±2.7%)) [%] | Diagnoses/observations ([2]; mouse, in vivo, iv, 0.3 mg/kg) | Diagnoses/observations ([2]; mouse, in vivo, iv, 3 mg/kg) | formation of capillary-like structures by bone marrow endothelium [3] | sensitivity of HL-60-Dox cells with high expression of the MDR-1 gene (HL-60-Dox cells) | protection by Bcl-2 overexpression (3-fold) [4] | cell number, % of DMSO-controls (Daudi cells; 0.3 μM, 48 hrs) [%] | surviving colonies (AML progenitors; 0.1 μM) | surviving colonies (AML progenitors; 0.3 μM) | surviving colonies (AML progenitors; 0.5 μM) | Diagnoses/observations ([2]; CDDO-Me IV single bolus, 1.0 mg/kg, 14 days) | Diagnoses/observations ([2]; mouse, in vivo, iv)
CC1(C)CCC2(C(=O)O)CCC3(C)C(C(=O)C=C4C5(C)C=C(C#N)C(=O)C(C)(C)C5CCC43C)C2C1 (stereo not shown) [CDDO, 2-cyano-3,12-dioxoolen-1,9-dien-28-oic acid] | 73.6 | 25.3 | 3/11 | 58±4.6 | 5/11 | 0.04-12.5% | 3±2.4 | Myeloid hyperplasia bone marrow | Myeloid hyperplasia, bone marrow | potently inhibited the formation of capillary-like structures | sensitive to CDDO-induced killing | did not protect cells from CDDO-killing |  |  |  |  |  | 
COC(=O)[C@]12CCC(C)(C)C[C@H]1[C@H]1C(=O)C=C3[C@@]4(C)C=C(C#N)C(=O)C(C)(C)[C@@H]4CC[C@@]3(C)[C@]1(C)CC2 [CDDO-Me] |  |  | 2/5 |  |  |  |  |  |  | inhibited | sensitive to CDDO-Me-induced killing | did not protect cells from CDDO-Me-killing | 22.5 | 46.7%±6.6 | 27.5%±6.8 | 8.8%±3.8 | DIED @ 5 minutes | Myeloid hyperplasia bone marrow
